PMC9103758 (International Journal of Molecular Sciences, 2022)
pIC50: −log10 of the molar value. Where “and” joins values, the source holds several entries; their conditions need not be identical. Identical values can stand only once.

Legend:
hERG K+ channel = target: T1, hERG K+ channel (Homo sapiens, UniProt Q12809); test: FluxOR thallium flux assay in HEK293T cells expressing hERG; assay type: cell-based
T1 construct: expressed in transfected cells; called HEK293
Method: (C) Summary of dose-response (mean ± S.E., n = 5). […] (F) Summary of dose−response (mean ± S.E., n = 6).
HEK293 cells stably expressing human Kv11.1 (hERG) were cultured in 96-well plates. After 48 h, the cells were incubated at 28 °C for 4 h to increase the membrane expression of hERG. The culture medium was replaced with a 80 μL/well of FluxOR (Invitrogen, Waltham, MA, USA) loading buffer and incubated for 1 h at 37 °C in the dark. After removing the loading buffer, 100 μL of assay buffer was added to each well. […] FluxOR fluorescence (excitation/emission: 490/525 nm) was recorded for 4 s before the addition of 20 μL of stimulus buffer containing thallium ions, and the fluorescence was recorded. FluxOR fluorescence was recorded and analyzed using the FLUOstar Omega microplate reader (BMG Labtech, Ortenberg, Germany) and the MARS Data Analysis Software (BMG Labtech, Ortenberg, Germany). All buffers were prepared according to the manufacturer’s instructions.

VRAC [1] = target: T2, VRAC (Homo sapiens, UniProt Q8IWT6)
T2 sequence (Q8IWT6 1-810): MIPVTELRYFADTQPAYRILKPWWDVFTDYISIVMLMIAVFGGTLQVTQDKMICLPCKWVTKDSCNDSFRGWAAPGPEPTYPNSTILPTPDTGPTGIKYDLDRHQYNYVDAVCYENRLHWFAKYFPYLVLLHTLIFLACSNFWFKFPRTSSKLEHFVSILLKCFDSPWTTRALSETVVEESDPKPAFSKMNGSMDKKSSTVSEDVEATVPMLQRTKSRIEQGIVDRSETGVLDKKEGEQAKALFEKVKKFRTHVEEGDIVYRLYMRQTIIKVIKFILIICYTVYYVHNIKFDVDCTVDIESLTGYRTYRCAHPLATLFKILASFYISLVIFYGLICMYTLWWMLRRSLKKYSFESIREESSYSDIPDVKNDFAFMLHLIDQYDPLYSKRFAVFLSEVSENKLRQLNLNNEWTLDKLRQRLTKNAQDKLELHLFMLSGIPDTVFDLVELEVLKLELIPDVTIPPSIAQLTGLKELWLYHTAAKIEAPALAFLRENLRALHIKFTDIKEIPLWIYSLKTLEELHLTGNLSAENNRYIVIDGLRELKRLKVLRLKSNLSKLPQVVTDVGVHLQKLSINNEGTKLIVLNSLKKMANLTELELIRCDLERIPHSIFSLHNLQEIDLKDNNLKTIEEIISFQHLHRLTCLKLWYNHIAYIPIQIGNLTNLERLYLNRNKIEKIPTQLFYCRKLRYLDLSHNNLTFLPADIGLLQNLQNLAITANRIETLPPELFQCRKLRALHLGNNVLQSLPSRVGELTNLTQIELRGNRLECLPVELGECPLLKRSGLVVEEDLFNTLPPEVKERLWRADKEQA

VRAC [2] = target: T2, VRAC; test: cell-based; settings: LN215 cells

T1 sequence (Q12809 whole entry): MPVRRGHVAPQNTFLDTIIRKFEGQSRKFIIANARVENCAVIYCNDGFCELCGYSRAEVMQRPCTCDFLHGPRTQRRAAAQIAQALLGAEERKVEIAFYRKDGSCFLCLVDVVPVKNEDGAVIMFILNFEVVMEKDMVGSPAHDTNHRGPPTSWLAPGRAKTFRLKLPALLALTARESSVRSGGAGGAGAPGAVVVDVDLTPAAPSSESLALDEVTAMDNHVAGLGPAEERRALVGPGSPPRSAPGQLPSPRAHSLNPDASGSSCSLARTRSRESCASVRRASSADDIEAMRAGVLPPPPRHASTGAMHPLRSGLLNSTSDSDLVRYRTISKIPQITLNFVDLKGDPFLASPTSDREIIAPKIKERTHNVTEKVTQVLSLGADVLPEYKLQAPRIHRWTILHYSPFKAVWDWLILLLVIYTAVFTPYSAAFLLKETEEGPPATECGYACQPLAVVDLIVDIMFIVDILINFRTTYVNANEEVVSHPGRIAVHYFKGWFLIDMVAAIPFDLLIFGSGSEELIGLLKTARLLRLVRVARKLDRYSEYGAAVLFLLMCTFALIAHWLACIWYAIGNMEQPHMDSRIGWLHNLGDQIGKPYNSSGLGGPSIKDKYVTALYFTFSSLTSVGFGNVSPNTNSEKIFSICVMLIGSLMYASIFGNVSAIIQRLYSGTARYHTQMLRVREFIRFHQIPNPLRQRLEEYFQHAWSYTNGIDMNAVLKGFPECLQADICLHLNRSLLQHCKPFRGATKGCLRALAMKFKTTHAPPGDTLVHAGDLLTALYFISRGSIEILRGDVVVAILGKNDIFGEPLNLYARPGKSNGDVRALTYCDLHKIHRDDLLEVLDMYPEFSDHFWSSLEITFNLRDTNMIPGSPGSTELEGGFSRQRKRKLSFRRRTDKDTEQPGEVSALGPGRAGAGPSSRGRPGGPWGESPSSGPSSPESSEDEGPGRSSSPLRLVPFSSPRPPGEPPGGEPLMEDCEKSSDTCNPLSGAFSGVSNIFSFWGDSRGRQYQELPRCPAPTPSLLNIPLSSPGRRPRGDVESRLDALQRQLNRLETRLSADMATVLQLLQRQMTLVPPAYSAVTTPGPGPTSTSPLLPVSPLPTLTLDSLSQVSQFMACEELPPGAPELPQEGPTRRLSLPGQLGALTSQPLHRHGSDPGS

COc1cccc(C(c2c(O)c3ccccc3oc2=O)c2c(O)c3ccccc3oc2=O)c1O [VI-116, 3,3′-((2-hydroxy-3-methoxyphenyl)methylene)bis(4-hydroxy-2H-chromen-2-one)]
effect on hERG K+ channel activity (hERG K+ channel; 10 μM): minimal inhibitory effect | pIC50 (hERG K+ channel; thallium flux, HEK293T cells expressing hERG, n = 6): 4.05 | effect on VRAC (VRAC [1]; 10 μM): completely inhibits | effect on VRAC activity (VRAC-mediated I- quenching) (VRAC [1]; LN215 cells): fully inhibited | decrease of potency on VRAC with 10% FBS compared to without FBS (VRAC [1]; LN215 cells, 10% FBS): 5.4 fold | pIC50 (VRAC [2]; VRAC IC50, YFP fluorescence quenching, hypotonic solution 5 min, n = 4): 5.89 and 5.90 | pIC50 (VRAC [2]; VRAC IC50 in the presence of 10% FBS, medium containing 10% FBS, 5 min): 5.16
